# Values of other authors in patent US11136251B2, “Compositions, methods, and devices for capturing phosphate from water” (REGENTS OF THE UNIVERSITY OF MINNESOTA, priority 2017, dated 2021).
structure (smiles),measurement,value
O=C([O-])CN(CCN(CC(=O)[O-])CC(=O)O)CCN(CC(=O)[O-])CC(=O)O.[Gd+3] [Gd-DTPA],selectivity for HPO4^2− over HCO3^− / bicarbonate binding,two-fold
